Laboratory results reported in patent US8987249B2, “Substituted 2-Aza-bicyclo[2.2.1]heptane-3-carboxylic acid (benzyl-cyano-methyl)-amides inhibitors of Cathepsin C” (Boehringer Ingelheim International GmbH, priority 2013, dated 2015).

Legend:
[1] = target: recombinant human DPPI (Cathepsin C) (Homo sapiens (Human), UniProt P53634); experiment: Inhibition of human DPPI (Cathepsin C); assay type: biochemical; details: substrate Gly-Arg-AMC
How it was run: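 Fluorescence read after 30 min room-temperature turnover of 50 μM (final) substrate by recombinant human cathepsin C, pH 6.0 MES/NaCl/DTT/BSA buffer, quenched by Gly-Phe-DMK (1 μM final). Activity as percent of vehicle after background subtraction, used for IC50.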

[2] = Determination of metabolic stability with human liver microsomes; details: pooled human liver microsomes; for half-life at 1 μM: human, pH 7.6
Procedure: Determination of Metabolic Stability with Human Liver Microsomes
The metabolic degradation of the test compound is assayed at 37° C. with pooled human liver microsomes. The final incubation volume of 100 μl per time point contains TRIS buffer pH 7.6 (0.1 M), magnesium chloride (5 mM), microsomal protein (1 mg/ml) and the test compound at a final concentration of 1 μM. Following a short preincubation period at 37° C., the reactions are initiated by addition of beta-nicotinamide adenine dinucleotide phosphate, reduced form (NADPH, 1 mM) and terminated by transferring an aliquot into acetonitrile after different time points. Additionally, the NADPH-independent degradation is monitored in incubations without NADPH, terminated at the last time point. The [%] remaining test compound after NADPH independent incubation is reflected by the parameter c (control) (metabolic stability). The quenched incubations are pelleted by centrifugation (10,000 g, 5 min). An aliquot of the supernatant is assayed by LC-MS/MS for the amount of parent compound.
The half-life (t½ INVITRO) is determined by the slope of the semilogarithmic plot of the concentration-time profile.

[3] = target: recombinant human Cathepsin K (Homo sapiens (Human), UniProt P43235); experiment: Inhibition of human Cathepsin K; assay type: biochemical; details: substrate Z-Gly-Pro-Arg-AMC
Text: Inhibition of Human Cathepsin K
Materials: Microtiterplates (Optiplate-384 F were purchased from PerkinElmer (Prod. No. 6007270). The substrate Z-Gly-Pro-Arg-AMC was from Biomol (Prod.-No. P-142). L-Cysteine (Prod. No. 168149) was from Sigma. Sodium acetate was from Merck (Prod.-No. 6268.0250), EDTA was from Fluka (Prod.-No. 03680). The inhibitor E-64 was purchased from Sigma (Prod.-No. E3132). The recombinant human Cathepsin K proenzyme was purchased from Biomol (Prod. No. SE-367). All other materials were of highest grade commercially available.
The following buffers were used: Activation buffer: 32.5 mM sodium acetate, adjusted to pH 3.5 with HCl; Assay buffer: 150 mM sodium acetate, 4 mM EDTA, 20 mM L-Cysteine, adjusted to pH 5.5 with HCl,
To activate the proenzyme, 5 μl procathepsin K were mixed with 1 ul activation buffer, and incubated at room temperature for 30 min.
5 μL test compound (final concentration 0.1 nM to 100 μM) in aqua bidest (containing 4% DMSO, final DMSO concentration 1%) were mixed with 10 uL of Cathepsin K in assay buffer (final concentration 2 ng/μL) and incubated for 10 min. […] The plates were then incubated at room temperature for 60 min. Then, the reaction was stopped by adding 10 μL of E64 in assay buffer (final concentration 1 μM). The fluorescence in the wells was determined using a Molecular Devices SpectraMax M5 Fluorescence Reader (Ex 360 nm, Em 460 nm).
Each assay microtiter plate contains wells with vehicle controls (1% DMSO in bidest) as reference for non-inhibited enzyme activity (100% Ctl; high values) and wells with inhibitor (E64 in bidest+1% DMSO, final concentration […]) as controls for background fluorescence (0% Ctl; low values). The analysis of the data was performed by calculating the percentage of fluorescence in the presence of test compound in comparison to the fluorescence of the vehicle control after subtracting the background fluorescence: (RFU(sample)−RFU(background))*100/(RFU(control)−RFU(background))
Data from these calculations were used to generate IC50 values for inhibition of Cathepsin K, respectively.

recombinant human DPPI (Cathepsin C), sequence (P53634 231-394): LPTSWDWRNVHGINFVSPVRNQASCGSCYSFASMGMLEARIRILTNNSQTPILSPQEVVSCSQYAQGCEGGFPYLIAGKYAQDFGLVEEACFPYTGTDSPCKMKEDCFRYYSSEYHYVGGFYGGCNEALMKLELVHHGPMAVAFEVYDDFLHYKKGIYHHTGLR
recombinant human DPPI (Cathepsin C), sequence (P53634 395-463): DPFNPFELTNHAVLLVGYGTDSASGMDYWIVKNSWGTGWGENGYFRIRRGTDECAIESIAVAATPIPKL
recombinant human DPPI (Cathepsin C), sequence (P53634 25-134): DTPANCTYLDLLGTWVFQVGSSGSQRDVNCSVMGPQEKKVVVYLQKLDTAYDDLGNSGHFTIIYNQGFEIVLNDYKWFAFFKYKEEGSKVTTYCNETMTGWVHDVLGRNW
recombinant human Cathepsin K, sequence (P43235 115-329): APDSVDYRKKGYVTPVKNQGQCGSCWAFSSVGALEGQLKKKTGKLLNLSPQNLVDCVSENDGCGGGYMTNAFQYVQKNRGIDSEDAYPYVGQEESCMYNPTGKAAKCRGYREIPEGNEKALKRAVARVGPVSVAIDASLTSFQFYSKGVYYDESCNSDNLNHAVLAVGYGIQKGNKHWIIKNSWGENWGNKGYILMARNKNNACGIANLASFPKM

IC50 [1] | half-life at 1 μM [2] | IC50 [3] | In vitro stability in human liver microsome incubations t½ ([2]; 1 μM test compound, 37° C., NADPH) | Compound
2 nM | > 2.17 h | – | – | N#Cc1ccc(-c2ccc(C[C@@H](C#N)NC(=O)[C@H]3N[C@@H]4CC[C@H]3C4)c(F)c2)o1 [Example 162]
43.7 nM | > 2.17 h | – | – | CS(=O)(=O)c1ccn(-c2ccc(C[C@@H](C#N)NC(=O)[C@H]3N[C@@H]4CC[C@H]3C4)c(F)c2)c(=O)c1 [Example 266]
1.3 nM | > 2.17 h | – | – | CN(C)CCn1cc(-c2ccc(C[C@@H](C#N)NC(=O)[C@H]3N[C@@H]4CC[C@H]3C4)c(F)c2)ccc1=O [Example 342]
7.9 nM | > 2.17 h | – | – | N#C[C@H](Cc1ccc(-c2ccc(=O)[nH]c2)cc1F)NC(=O)[C@H]1N[C@@H]2CC[C@H]1C2 [Example 258]
3 nM | > 2.17 h | – | – | CN(C)CCCN1C(=O)Cc2ccc(-c3ccc(C[C@@H](C#N)NC(=O)[C@H]4N[C@@H]5CC[C@H]4C5)c(F)c3)cc21 [Example 277]
3.3 nM | 1.57 h | – | – | CC1(C)OC(=O)c2cc(-c3ccc(C[C@@H](C#N)NC(=O)[C@H]4N[C@@H]5CC[C@H]4C5)c(F)c3)ccc21 [Example 166]
7 nM | > 2.17 h | – | – | CNC(=O)Cc1ccc2[nH]c(=O)c3cc(CC(C#N)NC(=O)[C@H]4N[C@@H]5CC[C@H]4C5)ccc3c2c1 (stereo partly shown) [Example 306]
8.3 nM | > 2.17 h | – | – | N#CC(Cc1ccc2c(c1)c(=O)[nH]c1c(F)cccc12)NC(=O)[C@H]1N[C@@H]2CC[C@H]1C2 (stereo partly shown) [Example 308]
– | 1.62 h | – | – | C[C@H]1CN(C)CCN1c1ccc(C[C@@H](C#N)NC(=O)[C@H]2N[C@@H]3CC[C@H]2C3)c(F)c1 [Example 188]
– | – | – | 2.17 h | N#C[C@H](Cc1ccc(N2CCCN3CCCC3C2)cc1F)NC(=O)[C@H]1N[C@@H]2CC[C@H]1C2 (stereo partly shown) [Example 271]
9.6 nM | – | 3500 nM | – | CNC(=O)c1ccc(-c2ccc(C[C@@H](C#N)NC(=O)[C@H]3N[C@@H]4CC[C@H]3C4)c(F)c2)cc1 [Example 186]
– | 0.967 h | – | – | N#C[C@H](Cc1ccc([C@H]2CCN3CCOC[C@H]3C2)cc1F)NC(=O)[C@H]1N[C@@H]2CC[C@H]1C2 [Example 284]
– | > 2.17 h | – | – | CC1CN(C)CCN1c1ccc(C[C@@H](C#N)NC(=O)[C@H]2N[C@@H]3CC[C@H]2C3)c(F)c1 (stereo partly shown) [Example 192]
25.9 nM | – | 4700 nM | – | Cn1c(=O)oc2cc(-c3ccc(CC(C#N)NC(=O)[C@H]4N[C@@H]5CC[C@H]4C5)c(F)c3)ccc21 (stereo partly shown) [Example 107]
30.5 nM | – | 9600 nM | – | N#C[C@H](Cc1ccc(-c2cccc(C(N)=O)c2)cc1F)NC(=O)[C@H]1N[C@H]2C[C@@H]1[C@@H]1C[C@@H]12 [Example 146]
38.7 nM | – | 7600 nM | – | CN1Cc2cc(-c3ccc(C[C@@H](C#N)NC(=O)[C@H]4N[C@H]5C[C@@H]4[C@@H]4C[C@@H]45)c(F)c3)ccc2C1=O [Example 149]
24.9 nM | – | 10300 nM | – | Cc1n[nH]cc1-c1ccc(CC(C#N)NC(=O)[C@H]2N[C@@H]3CC[C@H]2C3)c(F)c1 (stereo partly shown) [Example 104]
3.2 nM | – | 12400 nM | – | N#CC(Cc1ccc2c(c1)c(=O)[nH]c1cc(Cl)ccc12)NC(=O)[C@H]1N[C@@H]2CC[C@H]1C2 (stereo partly shown) [Example 297]
43.5 nM | – | 10200 nM | – | N#C[C@H](Cc1ccc(-c2ccc(C(N)=O)cc2)cc1F)NC(=O)[C@H]1N[C@H]2C[C@@H]1[C@@H]1C[C@@H]12 [Example 130]
1.7 nM | – | 1600 nM | – | N#C[C@H](Cc1ccc(-c2csc(C(=O)N3CCN(C4CC4)CC3)c2)cc1F)NC(=O)[C@H]1N[C@@H]2CC[C@H]1C2 [Example 229]
24.9 nM | – | 5900 nM | – | N#CC(Cc1ccc(-c2ccoc2)cc1F)NC(=O)[C@H]1N[C@@H]2CC[C@H]1C2 (stereo partly shown) [Example 103]
51.2 nM | – | 4500 nM | – | COc1ccccc1-c1cn(-c2ccc(C[C@@H](C#N)NC(=O)[C@H]3N[C@@H]4CC[C@H]3C4)c(F)c2)nn1 [Example 119]
21.5 nM | – | 8400 nM | – | CS(=O)(=O)Nc1ccc(-c2ccc(C[C@@H](C#N)NC(=O)[C@H]3N[C@H]4C[C@@H]3[C@@H]3C[C@@H]34)c(F)c2)cc1 [Example 140]

Continued, compound first:

Compound | IC50 [1] | half-life at 1 μM [2] | IC50 [3] | In vitro stability in human liver microsome incubations t½ ([2]; 1 μM test compound, 37° C., NADPH)
CC(O)Cc1cn(-c2ccc(C[C@@H](C#N)NC(=O)[C@H]3N[C@@H]4CC[C@H]3C4)c(F)c2)nn1 (stereo partly shown) [Example 101] | 23.9 nM | – | 6500 nM | –
CN1C(=O)Cc2ccc(-c3ccc(C[C@@H](C#N)NC(=O)[C@H]4N[C@@H]5CC[C@H]4C5)c(Cl)c3)cc21 [Example 81] | 13.1 nM | – | 4500 nM | –
CC(=O)c1ccc(-c2ccc(CC(C#N)NC(=O)[C@H]3N[C@@H]4CC[C@H]3C4)c(F)c2)s1 (stereo partly shown) [Example 72] | 10.8 nM | – | 7300 nM | –
CC(=O)NCCn1cc(-c2ccc(C[C@@H](C#N)NC(=O)[C@H]3N[C@@H]4CC[C@H]3C4)c(F)c2)cn1 [Example 38] | 4.8 nM | – | 2900 nM | –
N#C[C@H](Cc1ccc(-c2cccs2)cc1F)NC(=O)[C@H]1N[C@@H]2CC[C@H]1C2 [Example 36] | 4.7 nM | – | 3000 nM | –
COC(=O)Cn1cc(-c2ccc(C[C@@H](C#N)NC(=O)[C@H]3N[C@@H]4CC[C@H]3C4)c(F)c2)cn1 [Example 13] | 1.9 nM | – | 3400 nM | –
COc1ncc(-c2cn(-c3ccc(C[C@@H](C#N)NC(=O)[C@H]4N[C@@H]5CC[C@H]4C5)c(F)c3)nn2)cn1 [Example 66] | 9.4 nM | – | 4800 nM | –
Cc1nc(C)c(-c2ccc(C[C@@H](C#N)NC(=O)[C@H]3N[C@@H]4CC[C@H]3C4)c(F)c2)s1 [Example 80] | 12.4 nM | – | 4100 nM | –
Cc1occc1-c1ccc(CC(C#N)NC(=O)[C@H]2N[C@@H]3CC[C@H]2C3)c(F)c1 (stereo partly shown) [Example 92] | 17.7 nM | – | 8200 nM | –
Cc1ncc(-c2ccc(C[C@@H](C#N)NC(=O)[C@H]3N[C@H]4C[C@@H]3[C@@H]3C[C@@H]34)c(F)c2)s1 [Example 93] | 18.3 nM | – | 6900 nM | –
N#C[C@H](Cc1ccc(-c2ccc3c(c2)C(=O)OC3)cc1F)NC(=O)[C@H]1N[C@@H]2CC[C@H]1C2 [Example 34] | 4.6 nM | – | 2500 nM | –
CC(C)(C)n1cc(-c2ccc(C[C@@H](C#N)NC(=O)[C@H]3N[C@@H]4CC[C@H]3C4)c(F)c2)cn1 [Example 23] | 3.7 nM | – | 3800 nM | –
Cc1ncc(-c2ccc(C[C@@H](C#N)NC(=O)[C@H]3N[C@@H]4CC[C@H]3C4)c(F)c2)s1 [Example 25] | 3.9 nM | – | 6300 nM | –
CC(=O)n1nc(-c2ccc(CC(C#N)NC(=O)[C@H]3N[C@@H]4CC[C@H]3C4)c(F)c2)cc1C (stereo partly drawn) [Example 7, (1S,2S,4R)—N-[2-[4-(1-acetyl-5-methyl-pyrazol-3-yl)-2-fluoro-phenyl]-1-cyano-ethyl]-3-azabicyclo[2.2.1]heptane-2-carboxamide] | 1.9 nM | – | 8000 nM | –
CCn1cc(-c2ccc(C[C@@H](C#N)NC(=O)[C@H]3N[C@@H]4CC[C@H]3C4)c(F)c2)cn1 [Example 26] | 4 nM | – | 3600 nM | –
CC(C)CC(=O)n1cc(-c2ccc(C[C@@H](C#N)NC(=O)[C@H]3N[C@@H]4CC[C@H]3C4)c(F)c2)cn1 [Example 48] | 7.2 nM | – | 3300 nM | –
CCCn1cc(-c2ccc(C[C@@H](C#N)NC(=O)[C@H]3N[C@@H]4CC[C@H]3C4)c(F)c2)cn1 [Example 30] | 4.2 nM | – | 3100 nM | –
